# How the values were obtained:
# [1] = system: human adult dermal microvascular endothelial cells (MVEC); test: Tubule formation in human adult dermal microvascular endothelial cells; format: cell-based; conditions: CL 316,243 100 ng/ml
# Procedure: Human umbilical vein endothelial cells (HUVECs; Lonza C2519AS, pooled source, Australia) were grown using standard cell culture conditions in endothelial cell growth medium (EGM Plus®, containing 2% fetal bovine serum, Lonza, Australia). All cells were regularly confirmed to be mycoplasma negative. Two different pooled source cell lines were used in experiments and all were used within passages 2-4. Human adult dermal microvascular endothelial cells were also obtained from Lonza (CC-2543, Lonza Australia) and cultured as above but using endothelial growth medium 2-MV bulletkit. Endothelial colony forming cells (ECFCs) were derived from the peripheral blood of participants in the BioHEART study. This registered study (ACTRN12618001322224) complies with the Declaration of Helsinki and the study protocol and design has been approved by the Northern Sydney Local Health District Human Research Ethics Committee (HREC/17/HAWKE/343). […]
# Once they were ˜70% confluent, cells were re-suspended in diluted EGM Plus® (1:3) and plated on reduced-growth factor extracellular matrix (15 mg/ml, Cultrex, Trevigen, USA) at a density of 1.5×10^4 cells/cm^2. […] Cells were incubated in an EVOS FL Auto Imaging system for 16 hours and tubule formation recorded every hour. Optimal tube formation occurred at the 8-hour timepoint; tubule number at this point was quantified manually using NIH Image J software. […]
# C57BL6/J mice [2] = test: Hind limb ischemia in type 2 diabetes model, laser Doppler perfusion; format: in vivo, mouse; conditions: type 2 diabetes mice
# Procedure: (§1) Male C57BL6/J mice 8-10 weeks of age were obtained from Australian BioResources (Moss Vale, NSW) with 12 hour light/dark cycles and free access to water and mouse chow (Specialty Feeds, Australia). Mice were housed in groups of 2-5 in standard cages within a Physical Containment Level 2 laboratory. For in vivo angiogenesis 16 mice underwent the femoral vascular ligation model. Mice were anaesthetized with 1.5-2% isoflurane vaporized in oxygen and constant body temperature was maintained. All mice received pre-operative and 24-hour post-operative analgesia (carprofen, 5 mg/kg s.c). A small incision (˜15 mm) was made in the hind limb skin directly over the femoral vasculature. A portion of the femoral artery and vein, distal to the origin of the profunda femoris artery and proximal to the saphenous artery, were isolated and two ligations were performed using 6-0 silk sutures. The femoral artery and vein were then excised between the ligation sites 27. […] Hind limb blood flow was assessed prior to ligation (baseline) and immediately after undergoing hind limb ischemia, with subsequent imaging at day 3, 7, 10, 14, 21 and 28 post hind limb ischemia. […] The rate of reperfusion in the hind limb was calculated as a ratio of blood flow in the ischemic versus non-ischemic contralateral limb. […]
# C57BL6/J mice [3] = test: Hind limb ischemia in type 1 diabetes model, laser Doppler perfusion; format: in vivo, mouse
# Procedure: as §1
# C57BL6/J mice [4] = test: Murine hind limb ischemia model, laser Doppler perfusion (non-diabetic mice); format: in vivo, mouse
# Procedure: Male C57BL6/J mice 8-10 weeks of age were obtained from Australian BioResources (Moss Vale, NSW) with 12 hour light/dark cycles and free access to water and mouse chow (Specialty Feeds, Australia). Mice were housed in groups of 2-5 in standard cages within a Physical Containment Level 2 laboratory. For in vivo angiogenesis 16 mice underwent the femoral vascular ligation model. Mice were anaesthetized with 1.5-2% isoflurane vaporized in oxygen and constant body temperature was maintained. All mice received pre-operative and 24-hour post-operative analgesia (carprofen, 5 mg/kg s.c). A small incision (˜15 mm) was made in the hind limb skin directly over the femoral vasculature. A portion of the femoral artery and vein, distal to the origin of the profunda femoris artery and proximal to the saphenous artery, were isolated and two ligations were performed using 6-0 silk sutures. The femoral artery and vein were then excised between the ligation sites 27. An osmotic mini-pump (model 1002 [for 14 day protocols] or model 1004 [for 28 day protocols], Alzet, USA) containing either CL 316,243 (1 mg/kg/day) or vehicle (normal saline) was then implanted via the femoral skin opening and tunneled around and positioned in the dorsal flank. The mice were randomized 1:1 to treatment protocols prior to undergoing surgery. The skin was closed with non-continuous suture (Prolene 6-0, Johnson and Johnson Medical, Australia). Hind limb blood flow was assessed prior to ligation (baseline) and immediately after undergoing hind limb ischemia, with subsequent imaging at day 3, 7, 10, 14, 21 and 28 post hind limb ischemia. Some experiments were stopped at 14 days for assessment of hind limb histology and biochemistry. Software was used to analyze the perfusion flux (Moor, UK) and investigators were blinded to the treatment groups during the period of analysis. The rate of reperfusion in the hind limb was calculated as a ratio of blood flow in the ischemic versus non-ischemic contralateral limb.
# [5] = Glucose tolerance testing in type 2 diabetes model; format: in vivo, mouse
# Procedure: Glucose tolerance testing was conducted in fasted type 2 diabetic mice. Rodent chow was removed overnight and testing was conducted in the morning. After baseline glucose testing mice were injected intraperitoneal with sterile D-glucose (2 g/kg). Repeated blood glucose sampling was conducted every 15-30 minutes for 2 hours.
smiles,measurement,setting,value
"C[C@H](Cc1ccc2c(c1)OC(C(=O)[O-])(C(=O)[O-])O2)NC[C@H](O)c1cccc(Cl)c1.[Na+].[Na+] [CL 316,243]","angiogenesis (tubule formation) in endothelial cells from adults, dermal source",[1],stimulated angiogenesis
same,reperfusion post-ischemia,C57BL6/J mice [2],augmented reperfusion
same,perfusion ratio,"C57BL6/J mice [3]; citrate-buffer treated (non-diabetic) mice, also 14-28 days post-ischemia",not different from vehicle controls
same,greater ischemic-non-ischemic ratio (reperfusion),"C57BL6/J mice [3]; type 1 diabetes mice, from 14 days onwards, 1 mg/kg/day s.c., vs vehicle",~20
same,perfusion in the ischemic limbs,"C57BL6/J mice [4]; 1 mg/kg/day subcutaneous infusion, 10-14 days following ischemic injury, vs vehicle",significantly increased perfusion
same,perfusion in the non-ischemic limb,C57BL6/J mice [4]; 1 mg/kg/day systemic infusion,increased perfusion
same,ischemic non-ischemic ratio of perfusion,"C57BL6/J mice [4]; 14 days of hind limb ischemia, vs vehicle",no differences
same,fasted blood glucose levels,"[5]; fasted for glucose tolerance tests, did not reach significant difference",appeared lower
same,glucose tolerance,"[5]; non-hyperglycemic, non-diabetic controls",even improved
same,glucose tolerance,[5]; type 2 diabetic mice,improved

# — patent US20240148701A1, “WOULD HEALING METHODS” (The University of Sydney, priority 2021, published 2024)
